From PubChem BioAssay (NCI) come the findings set out here.

Some test systems named below: A549 NSCLC; HL-60(TB) leukemia; HS 578T breast; KM12 colon; LOX IMVI melanoma; MCF7 breast; MDA-MB-231 breast; MOLT-4 leukemia; SF-539 CNS; UACC-62 melanoma.
Holding throughout (experiment): NCI-60 cell line screen, 48 h

Values joined by “and” are separate entries in the source; they are usually repeats but may differ in a detail not shown here. Equal entries are not always repeated.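 Tested at 5 concentrations; 48 h exposure; 96-well plates; endpoints linearly interpolated, else capped at highest concentration. Here, GI50 denotes the concentration required for 50% inhibition of growth. TGI: concentration producing complete growth inhibition.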

Regarding `COC1=C(OC)C(=O)C(SC/C=C(\C)CCCC(C)CCCC(C)CCCC(C)C)=CC1=O` (stereo not given), the GI50 is 2.83 µM with A549 NSCLC; 0.359 µM with HL-60(TB) leukemia; 0.709 µM in the assay with HS 578T breast; 0.934 µM in the assay with KM12 colon; 0.488 µM in the assay with LOX IMVI melanoma; 0.455 µM in the assay with MCF7 breast. In addition, the GI50 is 1.92 µM with MDA-MB-231 breast, 1.41 µM in the assay with MOLT-4 leukemia, 1.41 µM in the assay with SF-539 CNS and 0.797 µM in the assay on UACC-62 melanoma. Moreover, the TGI with A549 NSCLC was over 100 µM; in the assay on HL-60(TB) leukemia, 3.41 µM; in the assay on HS 578T breast it was over 48.4 µM; with KM12 colon it was over 87.9 µM; in the assay with LOX IMVI melanoma, over 100 µM; in the assay on MCF7 breast, over 26.9 µM. The TGI is 8.78 µM in the assay with MDA-MB-231 breast, over 100 µM in the assay with MOLT-4 leukemia, over 92.2 µM with SF-539 CNS and over 100 µM in the assay with UACC-62 melanoma.
On to `Cc1cc(N(CCCNc2ccnc3cc(Cl)ccc23)Cc2ccco2)nc(N2CCN(C)CC2)n1`, for which the GI50 in the assay with A549 NSCLC is 4.34 µM; in the assay with HL-60(TB) leukemia, 2.06 µM; in the assay on HS 578T breast it was 2.43 µM; with KM12 colon, 3.73 µM; in the assay with LOX IMVI melanoma it was 1.69 µM; with MCF7 breast, 3.01 µM. Moreover, the GI50 in the assay on MDA-MB-231 breast is 2.63 µM; in the assay on MOLT-4 leukemia, 2.74 µM; in the assay on SF-539 CNS, 1.68 µM; in the assay on UACC-62 melanoma, 1.99 µM. In addition, the TGI came to 15.4 µM in the assay with A549 NSCLC; 4.37 µM in the assay on HL-60(TB) leukemia; 7.85 µM with HS 578T breast; 16.7 µM with KM12 colon; 3.53 µM with LOX IMVI melanoma; 13.9 µM in the assay with MCF7 breast. The TGI in the assay with MDA-MB-231 breast stood at 8.72 µM; in the assay with MOLT-4 leukemia, 14 µM; in the assay with SF-539 CNS, 3.23 µM; in the assay on UACC-62 melanoma, 3.74 µM.
On to `O=C1OC(C(O)CO)C(O)=C1O` (stereo not given), for which the GI50 was 2510 µM and > 4270 µM in the assay on A549 NSCLC; 5590 µM and 5090 µM in the assay with HL-60(TB) leukemia; 2990 µM and > 10000 µM in the assay with HS 578T breast; 1790 µM and > 3990 µM in the assay on KM12 colon; 340 µM and 426 µM in the assay on LOX IMVI melanoma; 233 µM and 489 µM in the assay with MCF7 breast. Also, the GI50 with MDA-MB-231 breast was 1460 µM and 1440 µM; in the assay with MOLT-4 leukemia, 2130 µM and 1550 µM; in the assay on SF-539 CNS, 1900 µM and 1390 µM; in the assay on UACC-62 melanoma, 1670 µM and 2050 µM. For the same molecule, the TGI in the assay on A549 NSCLC is 6010 µM and > 6460 µM; with HL-60(TB) leukemia it was over 10000 µM; in the assay on HS 578T breast, 7960 µM and > 10000 µM; in the assay with KM12 colon it was 3270 µM and > 5430 µM; in the assay with LOX IMVI melanoma, 1000 µM and 1460 µM; with MCF7 breast it was 502 µM and 1100 µM. Further, the TGI in the assay with MDA-MB-231 breast was 2820 µM and 2960 µM; in the assay on MOLT-4 leukemia, 5040 µM and > 4890 µM; in the assay on SF-539 CNS it was 3360 µM and 1830 µM; in the assay with UACC-62 melanoma, 3050 µM and > 5130 µM.
As to `COC1C(N)C(OC2C(Oc3cccc4c(O)c5c(=O)oc6ccc(C)c7c(=O)oc(c34)c5c67)OC(C)C(O)C2(C)O)OC(C)C1O` (stereo not given), the TGI in the assay on A549 NSCLC is 1.49 µM; with HL-60(TB) leukemia, 9.48 µM; with HS 578T breast, 0.886 µM; in the assay on KM12 colon it was 0.366 µM; with LOX IMVI melanoma it was 0.28 µM; in the assay on MCF7 breast, 1.31 µM. Further, the TGI in the assay on MDA-MB-231 breast turned out to be 1.74 µM; in the assay on MOLT-4 leukemia, 1.96 µM; in the assay with SF-539 CNS, 0.208 µM; in the assay with UACC-62 melanoma, 0.147 µM.
`Cc1cccc2c3c(sc12)C(c1ccc(Cl)cc1)C(C#N)=C(N)O3` (stereo not given): the GI50 is 0.486 µM in the assay with A549 NSCLC; 0.3 µM in the assay on HL-60(TB) leukemia; 0.274 µM in the assay on HS 578T breast; 0.428 µM with KM12 colon; 0.663 µM in the assay on LOX IMVI melanoma; 0.257 µM with MCF7 breast. The GI50 is 0.679 µM with MDA-MB-231 breast, 0.497 µM in the assay on MOLT-4 leukemia, 0.299 µM with SF-539 CNS and 0.327 µM with UACC-62 melanoma. Besides, the TGI with A549 NSCLC was 9.66 µM; in the assay with HL-60(TB) leukemia, 1.21 µM; with HS 578T breast it was 1.48 µM; with KM12 colon it was 10.7 µM; in the assay with LOX IMVI melanoma, 3.92 µM; in the assay with MCF7 breast it was 4.64 µM. Also, the TGI was determined as 7.74 µM in the assay on MDA-MB-231 breast, 13.7 µM in the assay on MOLT-4 leukemia, 1.14 µM with SF-539 CNS and 11.3 µM with UACC-62 melanoma.
With `COc1ccc(-c2nc(/C=C3\SC(=NCc4ccccc4)NC3=O)c3ccccn23)cc1`, the GI50 is 1.58 µM in the assay on A549 NSCLC; 2.1 µM in the assay with HL-60(TB) leukemia; 1.37 µM in the assay on HS 578T breast; 0.846 µM with KM12 colon; 0.964 µM with LOX IMVI melanoma; 1.55 µM in the assay on MCF7 breast. Moreover, the GI50 in the assay on MDA-MB-231 breast is 1.01 µM; in the assay with MOLT-4 leukemia, 2.72 µM; with SF-539 CNS it was 1.41 µM; in the assay on UACC-62 melanoma it was 1.55 µM. The TGI in the assay with A549 NSCLC amounted to 4.25 µM; in the assay with HL-60(TB) leukemia it was 5.11 µM; with HS 578T breast, 4.32 µM; with KM12 colon it was 2.3 µM; in the assay with LOX IMVI melanoma, 2.72 µM; with MCF7 breast, 3.39 µM. The TGI in the assay on MDA-MB-231 breast is 3.84 µM; in the assay with MOLT-4 leukemia it was over 100 µM; in the assay on SF-539 CNS, 1.99 µM; in the assay on UACC-62 melanoma, 3.8 µM.
Turning to `N#CCN1CCn2c1nsc2=S`, the GI50 in the assay with A549 NSCLC is over 100 µM; with HL-60(TB) leukemia, 20.2 µM; in the assay with HS 578T breast, over 100 µM; in the assay with KM12 colon, 88.9 µM; with LOX IMVI melanoma, over 100 µM; in the assay on MCF7 breast, 55.3 µM. The GI50 with MDA-MB-231 breast was over 100 µM; with MOLT-4 leukemia, 5.1 µM; in the assay with SF-539 CNS, over 100 µM; with UACC-62 melanoma, over 100 µM. In addition, the TGI with A549 NSCLC, in the assay on HL-60(TB) leukemia, in the assay with HS 578T breast, in the assay on KM12 colon, in the assay on LOX IMVI melanoma and in the assay with MCF7 breast was over 100 µM in each case. For the same molecule, the TGI with MDA-MB-231 breast, in the assay on MOLT-4 leukemia, in the assay on SF-539 CNS and in the assay with UACC-62 melanoma was over 100 µM each time.
In the case of `c1ccc2cc(-c3n(Cc4ccc5ccccc5n4)c4ccccc4[n+]3Cc3ccc4ccccc4n3)ccc2c1`, the GI50 with A549 NSCLC is 0.349 µM; with HL-60(TB) leukemia, 0.152 µM; in the assay with HS 578T breast it was 0.343 µM; in the assay with KM12 colon, 0.321 µM; with LOX IMVI melanoma, 0.259 µM; in the assay on MCF7 breast it was 0.277 µM. The GI50 in the assay with MDA-MB-231 breast is 0.307 µM; with MOLT-4 leukemia it was 0.348 µM; with SF-539 CNS, 0.39 µM; in the assay on UACC-62 melanoma, 0.339 µM. Moreover, the TGI in the assay with A549 NSCLC came to 1.51 µM; in the assay with HL-60(TB) leukemia it was 0.462 µM; with HS 578T breast, 1.7 µM; in the assay on KM12 colon, 1.21 µM; in the assay with LOX IMVI melanoma, 0.837 µM; with MCF7 breast it was 1.14 µM. The TGI with MDA-MB-231 breast amounted to 1.32 µM; with MOLT-4 leukemia, 1.4 µM; in the assay with SF-539 CNS, 1.43 µM; in the assay with UACC-62 melanoma it was 1.32 µM.
For the molecule `Oc1c(I)cc(I)c2cccnc12`, the GI50 was 5.67 µM with A549 NSCLC; 6.82 µM in the assay with HL-60(TB) leukemia; 7.24 µM in the assay with HS 578T breast; 4.69 µM with KM12 colon; 5.13 µM with LOX IMVI melanoma; 3.89 µM with MCF7 breast. The GI50 in the assay with MDA-MB-231 breast is 6.99 µM; in the assay with MOLT-4 leukemia it was 7.53 µM; with SF-539 CNS it was 4.16 µM; in the assay on UACC-62 melanoma, 3.09 µM. The TGI in the assay on A549 NSCLC is over 100 µM; in the assay with HL-60(TB) leukemia it was over 100 µM; with HS 578T breast, over 100 µM; with KM12 colon it was over 100 µM; in the assay with LOX IMVI melanoma, 89.2 µM; in the assay on MCF7 breast, 19.9 µM. In addition, the TGI in the assay on MDA-MB-231 breast was 46.7 µM; in the assay with MOLT-4 leukemia, over 100 µM; with SF-539 CNS it was 23.5 µM; in the assay on UACC-62 melanoma it was 15.6 µM.
Regarding `COC(=O)CCCCC(=O)c1c(C)[nH]c(/C=C2\N=C(c3ccc[nH]3)C=C2OC)c1C`, the GI50 is 1.25 µM in the assay with A549 NSCLC; 0.273 µM with HL-60(TB) leukemia; 1.02 µM in the assay on HS 578T breast; 0.54 µM in the assay with KM12 colon; 0.0416 µM in the assay with LOX IMVI melanoma; 0.723 µM with MCF7 breast. Besides, the GI50 in the assay on MDA-MB-231 breast was 0.269 µM; in the assay with MOLT-4 leukemia, 0.103 µM; in the assay on SF-539 CNS it was 1.15 µM; with UACC-62 melanoma it was 1.25 µM. In addition, the TGI with A549 NSCLC is 3.28 µM; in the assay on HL-60(TB) leukemia, 1.03 µM; in the assay on HS 578T breast, 3.05 µM; with KM12 colon, 1.96 µM; in the assay with LOX IMVI melanoma it was 0.135 µM; with MCF7 breast, 2.09 µM. The TGI with MDA-MB-231 breast came to 1.65 µM; in the assay on MOLT-4 leukemia, 1.74 µM; in the assay with SF-539 CNS, 2.47 µM; in the assay on UACC-62 melanoma, 2.69 µM.
As for `COC(=O)[C@H]1CCCN1C(=O)[C@H]1CCCN1C(=O)[C@@H](Cc1c[nH]c2ccccc12)NC(=S)Nc1cc(C(F)(F)F)cc(C(F)(F)F)c1`, the GI50 is 1.83 µM in the assay on A549 NSCLC; 2.38 µM with HL-60(TB) leukemia; 2.03 µM in the assay on HS 578T breast; 1.88 µM in the assay with KM12 colon; 1.65 µM in the assay on LOX IMVI melanoma; 2.16 µM with MCF7 breast. The GI50 with MDA-MB-231 breast is 1.68 µM; in the assay with MOLT-4 leukemia, 2.38 µM; with SF-539 CNS, 1.92 µM; with UACC-62 melanoma, 1.84 µM. Further, the TGI with A549 NSCLC was found to be 4.52 µM; in the assay with HL-60(TB) leukemia it was 6.03 µM; in the assay on HS 578T breast, 5.17 µM; with KM12 colon it was 3.92 µM; in the assay on LOX IMVI melanoma, 3.05 µM; with MCF7 breast it was 5.35 µM. The TGI in the assay with MDA-MB-231 breast was 3.09 µM; with MOLT-4 leukemia, 7.6 µM; with SF-539 CNS, 3.61 µM; with UACC-62 melanoma, 3.79 µM.
